Several values for one entry are separate records, joined by “and”; a condition that tells them apart may be missing. Identical values can stand only once.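 Compound exposure: 48 hours, 5 concentrations, 96-well plates. GI50 marks 50% less growth.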 Activity calls are given as the source filed them. Cut-off read from the data, not from the text of the source: active = GI50 up to about 1.1 µM and inactive = higher.
Legend:
Assay in all cases: NCI tumour cell line growth inhibition, 48 h
A498 = system: A498
A549 = system: A549
ACHN = system: ACHN
HCT-116 = system: HCT-116
HL-60 = system: HL-60
KM12 = system: KM12
M14 = system: M14
MDA-MB-435 = system: MDA-MB-435
NCI-H226 = system: NCI-H226
NCI-H23 = system: NCI-H23
OVCAR-3 = system: OVCAR-3
OVCAR-4 = system: OVCAR-4
PC-3 = system: PC-3
RPMI-8226 = system: RPMI-8226
RXF 393 = system: RXF 393
SF-295 = system: SF-295
SK-MEL-2 = system: SK-MEL-2
SN12C = system: SN12C
SW-620 = system: SW-620
NCI-H460 = system: NCI-H460

Structure (SMILES) | GI50 (A498) | GI50 (A549) | GI50 (ACHN) | GI50 (HCT-116) | GI50 (HL-60) | GI50 (KM12) | GI50 (M14) | GI50 (MDA-MB-435) | GI50 (NCI-H226) | GI50 (NCI-H23) | GI50 (OVCAR-3) | GI50 (OVCAR-4) | GI50 (PC-3) | GI50 (RPMI-8226) | GI50 (RXF 393) | GI50 (SF-295) | GI50 (SK-MEL-2) | GI50 (SN12C) | GI50 (SW-620) | GI50 (NCI-H460)
N#CC1=C(N)N(c2ccccc2)C(c2ccccc2)C1(C#N)C#N (stereo unspecified) | 17.4 µM (inactive) | 17.8 µM (inactive) | 18.1 µM (inactive) | 14.5 µM (inactive) | 17 µM (inactive) | 14.5 µM (inactive) | 21 µM (inactive) | 18.8 µM (inactive) | 17.7 µM (inactive) | 20.8 µM (inactive) | 17.8 µM (inactive) | 19.6 µM (inactive) | 17.7 µM (inactive) | 14.8 µM (inactive) | 15 µM (inactive) | 18.4 µM (inactive) | 16.4 µM (inactive) | 18.8 µM (inactive) | 19.1 µM (inactive) | –
CC1C(O)Oc2cc3c(cc2C1c1ccccc1O)OCO3 (stereo unspecified) | 29.6 µM (inactive) | 30.1 µM (inactive) | 29.6 µM (inactive) | 17.9 µM (inactive) | 17.9 µM (inactive) | 32.1 µM (inactive) | 30.5 µM (inactive) | 29.9 µM (inactive) | 18.6 µM (inactive) | 46.1 µM (inactive) | 27.8 µM (inactive) | – | 19.5 µM (inactive) | 16.7 µM (inactive) | 14.3 µM (inactive) | 21.2 µM (inactive) | 25.9 µM (inactive) | 39.2 µM (inactive) | 39.1 µM (inactive) | 23.4 µM (inactive)
O=Cc1[nH]c(=O)[nH]c(=O)c1CCl | > 100 µM (inactive) | > 100 µM (inactive) | > 83 µM (inactive) | 50.5 µM (inactive) | 38 µM (inactive) | > 100 µM (inactive) | – | > 100 µM (inactive) | > 100 µM (inactive) | > 100 µM (inactive) | > 100 µM (inactive) | > 60.5 µM (inactive) | > 100 µM (inactive) | > 48.6 µM (inactive) | 71.6 µM (inactive) | > 100 µM (inactive) | > 90.2 µM (inactive) | > 100 µM (inactive) | 38.7 µM (inactive) | > 55.8 µM (inactive)
CSc1ncnc2c1cnn2Cc1cn(COCCO)nn1 | > 100 µM (inactive) | 51.8 µM (inactive) | > 100 µM (inactive) | 45.4 µM (inactive) | 40 µM (inactive) | 23.2 µM (inactive) | > 100 µM (inactive) | 11.1 µM (inactive) | > 100 µM (inactive) | 49.7 µM (inactive) | 18.3 µM (inactive) | 45.5 µM (inactive) | 36 µM (inactive) | 34.3 µM (inactive) | 46.6 µM (inactive) | – | 39 µM (inactive) | 64.6 µM (inactive) | 44.3 µM (inactive) | 32 µM (inactive)
C/C(=C\COc1ccc2ccc(=O)oc2c1)C1=CC(=O)C(C)(C)O1 [GEIPARVARIN] | 4.6 µM (inactive) | 7.67 µM (inactive) | 4.39 µM (inactive) | 2.22 µM (inactive) | 2.29 µM (inactive) | – | 4.04 µM (inactive) | 3.48 µM (inactive) | 3.32 µM (inactive) | 3.29 µM (inactive) | 3.7 µM (inactive) | 3.08 µM (inactive) | 6.58 µM (inactive) | 2.04 µM (inactive) | 2.01 µM (inactive) | 2.43 µM (inactive) | 3.66 µM (inactive) | 3.94 µM (inactive) | 3.43 µM (inactive) | –
S=C(c1c[nH]c2ccccc12)N1CCN(c2ccccc2)CC1 | > 100 µM (inactive) | – | 87.1 µM (inactive) | > 100 µM (inactive) | > 100 µM (inactive) | 82.8 µM (inactive) | > 100 µM (inactive) | > 100 µM (inactive) | 7.76 µM (inactive) | > 100 µM (inactive) | > 100 µM (inactive) | – | > 100 µM (inactive) | > 100 µM (inactive) | > 100 µM (inactive) | 79.8 µM (inactive) | > 100 µM (inactive) | 21.8 µM (inactive) | > 100 µM (inactive) | > 100 µM (inactive)
N=C(N)N/N=C/c1c(-c2cc([N+](=O)[O-])c(Cl)cc2Cl)nc2sccn12 | 1.62 µM (inactive) and 1.61 µM (inactive) | 1.82 µM (inactive) and 1.51 µM (inactive) | 527 nM (active) and 1.67 µM (inactive) | – | 2.27 µM (inactive) and 1.53 µM (inactive) | 168 nM (active) and 1.19 µM (inactive) | 1.66 µM (inactive) | 332 nM (active) and 1.7 µM (inactive) | 2.04 µM (inactive) | 1.56 µM (inactive) and 1.36 µM (inactive) | 1.86 µM (inactive) | 1.66 µM (inactive) | 1.45 µM (inactive) and 2.01 µM (inactive) | 1.27 µM (inactive) and 1.75 µM (inactive) | 1.46 µM (inactive) | 1.56 µM (inactive) and 1.47 µM (inactive) | 1.91 µM (inactive) and 1 µM (active) | 2 µM (inactive) and 1.34 µM (inactive) | 435 nM (active) and 1.27 µM (inactive) | 1.86 µM (inactive) and 1.73 µM (inactive)

— ChEMBL document CHEMBL1201862, “PubChem BioAssay data set” (2004)
